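A five-concentration, 48-hour dose response in 96-well plates underlies each endpoint, interpolated linearly between surrounding concentrations. Abbreviation: GI50, concentration required for 50% inhibition of growth.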 Activity calls are given as the source filed them. Cut-off read from the data, not from the text of the source: active = GI50 up to about 1.1 µM and inactive = higher.

Test systems include MOLT-4; K562; UACC-62; MDA-N; SK-OV-3; SF-539; OVCAR-5; ACHN; HCT-15; RPMI-8226; MCF7; UACC-257; TK-10; COLO 205; SF-295; LOX IMVI; EKVX; CAKI-1.
Experiment in all cases: NCI anticancer screen, dose series, 48 h

As to `Cn1c2ccccc2c(=O)c2cccc(C(=O)NCC(=O)O)c21`, the GI50 with MOLT-4, in the assay with K562, in the assay on UACC-62, in the assay with MDA-N, in the assay on SK-OV-3 and in the assay on SF-539 was > 100 µM (inactive) each time. Besides, the GI50 was > 100 µM (inactive) with OVCAR-5; > 100 µM (inactive) in the assay with ACHN; greater than 100 µM in the assay on HCT-15; > 100 µM (inactive) in the assay on RPMI-8226; > 100 µM (inactive) in the assay with MCF7; > 100 µM (inactive) in the assay on UACC-257. In addition, the GI50 was > 100 µM (inactive) in the assay with TK-10; > 100 µM (inactive) in the assay on COLO 205; > 100 µM (inactive) in the assay on SF-295; 71.3 µM (inactive) in the assay with LOX IMVI; 36.8 µM (inactive) in the assay with EKVX.
For the compound `CCN1CC2=C(N=c3s/c(=C\c4ccc(Cl)cc4)c(=O)n3C2c2ccc(Cl)cc2)/C(=C/c2ccc(Cl)cc2)C1` (stereo unspecified), the GI50 in the assay on MOLT-4 is 64.6 µM (inactive); in the assay on K562, > 100 µM (inactive); in the assay on UACC-62 it was 32.2 µM (inactive); in the assay with MDA-N, > 100 µM (inactive); in the assay with SK-OV-3, 16.8 µM (inactive); with CAKI-1 it was 16.4 µM (inactive). For the same compound, the GI50 in the assay on OVCAR-5 is > 100 µM (inactive); in the assay with ACHN, 58.7 µM (inactive); in the assay with HCT-15, greater than 100 µM; in the assay on RPMI-8226, 84.9 µM (inactive); in the assay with MCF7 it was > 100 µM (inactive); with UACC-257, > 100 µM (inactive). Moreover, the GI50 was 18.9 µM (inactive) with TK-10; > 100 µM (inactive) in the assay with COLO 205; 33 µM (inactive) in the assay on SF-295; > 100 µM (inactive) in the assay on LOX IMVI; > 100 µM (inactive) in the assay on EKVX.
Consider `NS(=O)(=O)c1nnc(NSc2ccc([N+](=O)[O-])cc2)s1`, for which the GI50 in the assay with MOLT-4 is 40.8 µM (inactive); with K562, > 100 µM (inactive); in the assay with UACC-62, > 100 µM (inactive); in the assay on MDA-N it was > 100 µM (inactive); in the assay on SK-OV-3 it was > 100 µM (inactive); with CAKI-1, 92.3 µM (inactive). Besides, the GI50 in the assay on OVCAR-5 is > 100 µM (inactive); with ACHN it was > 100 µM (inactive); in the assay on HCT-15 it was greater than 100 µM; in the assay on RPMI-8226, 49.7 µM (inactive); in the assay on MCF7, > 100 µM (inactive); in the assay with UACC-257, > 100 µM (inactive). Further, the GI50 in the assay on TK-10, in the assay on COLO 205, with SF-295, in the assay with LOX IMVI and in the assay with EKVX was > 100 µM (inactive) throughout.
`O=C(O)C1C2CCC(O2)C1C(=O)Nc1cccc2cccnc12` (stereo unspecified): the GI50 with K562, with UACC-62, in the assay with MDA-N, with SK-OV-3, with CAKI-1 and in the assay with OVCAR-5 was > 100 µM (inactive) in each case. Moreover, the GI50 in the assay on ACHN was > 100 µM (inactive); with HCT-15, greater than 100 µM; in the assay with RPMI-8226 it was > 100 µM (inactive); with MCF7, > 100 µM (inactive); in the assay on UACC-257, > 100 µM (inactive); with TK-10, > 100 µM (inactive). Besides, the GI50 in the assay on SF-295, in the assay with LOX IMVI and in the assay on EKVX was > 100 µM (inactive) each time.

Source of the values: ChEMBL document CHEMBL1201862, “PubChem BioAssay data set” (2004).
